# Test results taken from the supplement of paper PMC10878532, “Sperm Toolbox—A selection of small molecules to study human spermatozoa” (PLOS ONE, 2024).
# Counter-ions that a name gives are not always drawn.
# Assays:
# HepG2 = HepG2 toxicity (resazurin), effect normalised to DMSO (DMSO = 0); higher = more features changed / larger toxic effect; conditions: incubation time: 70h incubation
# HeLa [1] = experiment: HeLa toxicity: nuclei-count effect normalised to DMSO (DMSO = 0); higher = more features changed / larger toxic effect; conditions: incubation time: 24h incubation
# HeLa [2] = experiment: Cell Painting percent induction (share of features beyond 2 z-scores vs DMSO); higher = more features changed / larger toxic effect; extreme values may be limits of the assay; conditions: incubation time: 24h incubation
# human spermatozoa [3] = experiment: total motile sperm, percent change vs DMSO (non-capacitating); higher = more of the measured sperm population than DMSO, for viability, fewer PI-positive (dead) cells than DMSO
# human spermatozoa [4] = experiment: viability fold change, 1 - (PI-positive fraction / DMSO median); higher = more of the measured sperm population than DMSO, for viability, fewer PI-positive (dead) cells than DMSO; conditions: incubation time: 3h, non-capacitating
# human spermatozoa [5] = experiment: progressively motile sperm, percent change vs DMSO (capacitating); higher = more of the measured sperm population than DMSO, for viability, fewer PI-positive (dead) cells than DMSO; conditions: incubation time: 30min incubation
# human spermatozoa [6] = experiment: hyperactivated motile sperm, percent change vs DMSO (capacitating); higher = more of the measured sperm population than DMSO, for viability, fewer PI-positive (dead) cells than DMSO; conditions: incubation time: 30min incubation
# human spermatozoa [7] = experiment: change in acrosome-reacted (PNA+) sperm vs DMSO, no agonist (capacitating); higher = more of the measured sperm population than DMSO, for viability, fewer PI-positive (dead) cells than DMSO; conditions: incubation time: 3h
# human spermatozoa [8] = experiment: acrosome-reacted (PNA+) sperm after agonist cocktail, percent change vs DMSO (capacitating); higher = more of the measured sperm population than DMSO, for viability, fewer PI-positive (dead) cells than DMSO; conditions: incubation time: 3h, capacitating + agonist cocktail 1h
# human spermatozoa [9] = experiment: progressively motile sperm, percent change vs DMSO (non-capacitating); higher = more of the measured sperm population than DMSO, for viability, fewer PI-positive (dead) cells than DMSO; extreme values may be limits of the assay
# [10] = incubation time: 10min incubation, 9.99 µM
# [11] = incubation time: 10min incubation, 29.9 µM
# [12] = incubation time: 3h incubation, 9.99 µM
# [13] = incubation time: 3h incubation, 29.9 µM
# [14] = incubation time: 6h incubation, 9.99 µM
# [15] = incubation time: 6h incubation, 29.9 µM
# 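Wherever progressively motile sperm, percent change vs DMSO (non-capacitating) is given: pooled live human sperm from at least 3 donors, tracked by automated microscopy in 0.5 s time-lapse movies, compounds at 10 and 30 µM, versus median of 16 DMSO wells per plate.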
# 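Wherever total motile sperm, percent change vs DMSO (non-capacitating) is given: sperm pooled from at least 3 donors, tracked in 0.5 s time-lapse movies by automated microscopy after 10 min, 3 h or 6 h with compound at 10 or 30 µM.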
Structure (SMILES),HepG2 toxicity (HepG2; 10 µM) [%],HepG2 toxicity (HepG2; 30 µM) [%],HeLa toxicity: nuclei-count effect normalised (HeLa [1]; 9.99 µM) [%],HeLa toxicity: nuclei-count effect normalised (HeLa [1]; 29.9 µM) [%],Cell Painting percent induction (HeLa [2]; 9.99 µM) [%],Cell Painting percent induction (HeLa [2]; 29.9 µM) [%],total motile sperm (human spermatozoa [3]; [10]) [%],total motile sperm (human spermatozoa [3]; [11]) [%],total motile sperm (human spermatozoa [3]; [12]) [%],total motile sperm (human spermatozoa [3]; [13]) [%],total motile sperm (human spermatozoa [3]; [14]) [%],total motile sperm (human spermatozoa [3]; [15]) [%],viability fold change (human spermatozoa [4]; 9.99 µM),viability fold change (human spermatozoa [4]; 29.9 µM),progressively motile sperm (human spermatozoa [5]; 9.99 µM) [%],progressively motile sperm (human spermatozoa [5]; 29.9 µM) [%],hyperactivated motile sperm (human spermatozoa [6]; 9.99 µM) [%],hyperactivated motile sperm (human spermatozoa [6]; 29.9 µM) [%],change in acrosome-reacted (human spermatozoa [7]; 9.99 µM) [%],change in acrosome-reacted (human spermatozoa [7]; 29.9 µM) [%],acrosome-reacted (human spermatozoa [8]; 9.99 µM) [%],acrosome-reacted (human spermatozoa [8]; 29.9 µM) [%],progressively motile sperm (human spermatozoa [9]; [10]) [%],progressively motile sperm (human spermatozoa [9]; [11]) [%],progressively motile sperm (human spermatozoa [9]; [12]) [%],progressively motile sperm (human spermatozoa [9]; [13]) [%],progressively motile sperm (human spermatozoa [9]; [14]) [%],progressively motile sperm (human spermatozoa [9]; [15]) [%]
C=C[C@@]1(C)CC(=O)[C@@]2(O)[C@](C)(O1)[C@@H](OC(C)=O)[C@@H](O)C1C(C)(C)CC[C@H](O)[C@@]12C (stereo partly specified) [Forskolin],3.42,-7.11,-1.74,-1.47,1.19,0.108,0.618,0.675,-0.0205,4.68,-0.697,-0.227,-0.712,-0.989,7.73,8.32,26.6,5.16,0.404,0.226,0.165,-4.34,0.859,0.86,3.82,13.8,-0.781,12
O=c1c(-c2ccc(O)cc2)coc2cc(O)cc(O)c12 [Genistein],6.96,-8.2,17.4,22.9,0.108,0.612,-0.344,-2.3,-0.864,0.829,-0.945,-6.76,-0.643,-0.0998,9.31,12,20.2,-0.318,1.12,1.51,4.37,8.14,5.98,2.04,6.38,0.504,9.21,2.89
Cc1cc2c(C(C)C)c(O)c(O)c(C=O)c2c(O)c1-c1c(C)cc2c(C(C)C)c(O)c(O)c(C=O)c2c1O [Gossypol],54.9,102,27.1,73.1,0.072,17.1,-1.73,0.377,-2.73,-0.0743,-0.633,-2.29,-0.0154,0.577,-0.382,7.08,-21.9,-39.1,1.41,1.17,-15.6,-28.9,-3.27,-2.36,3.33,-8.54,12.2,-12.2
O=S(=O)(NCCNC/C=C/c1ccc(Br)cc1)c1cccc2cnccc12 [H 89 dihydrochloride],-3.98,92.3,7.55,17.5,0.648,1.84,5.7,1.67,2.42,2.31,2.24,1.63,-0.8,-1.21,9.41,1.95,4.83,-35.2,0.62,0.493,4.9,11.9,12.9,3.24,21.9,3.91,27.7,10.5
Oc1c(Cl)cc(Cl)c(Cl)c1Cc1c(O)c(Cl)cc(Cl)c1Cl [Hexachlorophene],56.3,74.5,14,33.9,0,0.18,-1.87,-5.83,-1.02,-8.13,-1.96,-7.29,-0.213,0.344,-5.64,-8.81,-24.4,-58.1,0.634,0.899,-9.07,-13.3,-23.5,-48.4,-39.7,-63.9,-37.2,-61.3
CC(C)Cn1c(=O)n(C)c(=O)c2[nH]cnc21 [IBMX],7.96,-0.365,3.07,-2.27,0,0.036,-1.18,1.45,-5.33,-3.42,-1.15,-4.45,-0.424,-0.627,12.9,19.2,67.7,147,0.651,1.04,36.8,69.3,18.9,35.7,40.5,53.9,53.1,61.2
CC(C)Cn1cnc2c(N)nc3ccccc3c21 [Imiquimod],10.2,-1.53,6.28,5.01,0.612,0,-0.548,1.37,-4.33,-4.6,-4.54,-9.83,-0.324,-0.489,7.22,11.8,65.2,131,1.03,1.32,34.9,56.5,24.4,32.7,49.3,51.2,58.8,51.3
Cc1sc2c(c1C)C(c1ccc(Cl)cc1)=N[C@@H](CC(=O)OC(C)(C)C)c1nnc(C)n1-2 [JQ1],56.3,–,16.3,31.3,0.684,1.87,4.25,1.65,-3.02,0.304,-0.955,-3.78,-0.127,-0.0779,15.8,27.5,18.5,-14.4,0.641,1.24,17.2,40.2,13.6,21.5,27.4,52.8,48,55.5
COc1cc(SC)ccc1C(=O)N1CCC(Cc2ccccc2)CC1 [JX 401],9.25,-2.23,4.01,2.67,0.036,0,3.2,-0.475,1.22,-0.09,0.862,-0.188,-1.82,-1.65,4.17,3.66,19.2,24.9,0.294,1.59,15,16.2,2.94,-4.03,10.9,7.53,13.8,14.6
